{
  "source": "paper PMC12298351",
  "about": "“Novel 3,19-(N-Phenyl-3-(4-fluorophenyl)-pyrazole) Acetal of Andrographolide Promotes Cell Cycle Arrest and Apoptosis in MDA-MB-231 Breast Cancer Cells” (Pharmaceuticals, 2025)",
  "key": {"M14": {"tested_on": "M14", "assay_type": "cell-based", "conditions": "M14, Melanoma"}, "MDA-MB-468": {"tested_on": "MDA-MB-468", "conditions": "MDA-MB-468, Breast"}, "U251": {"tested_on": "U251", "conditions": "U251, CNS"}, "A498": {"tested_on": "A498", "conditions": "A498, Renal"}, "KM12": {"tested_on": "KM12", "conditions": "KM12, Colon"}, "OVCAR-8": {"tested_on": "OVCAR-8", "conditions": "OVCAR-8, Ovarian"}, "SK-MEL-28": {"tested_on": "SK-MEL-28", "conditions": "SK-MEL-28, Melanoma"}, "CAKI-1": {"tested_on": "CAKI-1", "conditions": "CAKI-1, Renal"}, "SK-MEL-2": {"tested_on": "SK-MEL-2", "conditions": "SK-MEL-2, Melanoma"}, "HT29": {"tested_on": "HT29", "conditions": "HT29, Colon"}, "RXF 393": {"tested_on": "RXF 393", "conditions": "RXF 393, Renal"}, "MALME-3M": {"tested_on": "MALME-3M", "conditions": "Melanoma"}, "SF-539": {"tested_on": "SF-539", "conditions": "SF-539, CNS"}, "SW-620": {"tested_on": "SW-620", "conditions": "SW-620, Colon"}, "OVCAR-3": {"tested_on": "OVCAR-3", "conditions": "OVCAR-3, Ovarian"}, "[1]": {"experiment": "DPPH radical scavenging assay", "conditions": "25 µM test compound, 0.1 mM DPPH, acetonitrile, 30 min", "method_in_brief": "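Compounds at 25 µM in acetonitrile mixed 1:2 with 0.1 mM DPPH in acetonitrile, kept 30 min in the dark at room temperature. Absorbance read at 517 nm; % scavenging = (Ac − As)/Ac × 100, Ac being DPPH blank. Ascorbic acid positive control.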"}, "MCF7": {"tested_on": "MCF7", "conditions": "MCF7, Breast"}, "[2]": {"conditions": "read-out: 50% lethal concentration (LC50)"}, "[3]": {"conditions": "read-out: 50% lethal concentration (LC50), Non-Small Cell Lung"}},
  "data": [
    {"smiles": "C=C1CCC2C3(C)COC(c4cn(-c5ccccc5)nc4-c4cccc(Br)c4)OC3CCC2(C)C1CC=C1C(=O)OCC1O", "note": "(stereo not drawn) [1e]", "values": [
      {"measurement": "GI50", "setting": "M14", "value": 1.86, "unit": "µM"},
      {"measurement": "Total growth inhibition (TGI)", "setting": "M14", "value": 4.12, "unit": "µM"},
      {"measurement": "GI50", "setting": "MDA-MB-468", "value": 1.82, "unit": "µM"},
      {"measurement": "Total growth inhibition (TGI)", "setting": "MDA-MB-468", "value": 3.41, "unit": "µM"},
      {"measurement": "CC50", "setting": "MDA-MB-468; [2]", "value": 6.37, "unit": "µM"},
      {"measurement": "GI50", "setting": "MDA-MB-231; MDA-MB-231, Breast", "value": 1.68, "unit": "µM"},
      {"measurement": "Total growth inhibition (TGI)", "setting": "MDA-MB-231; MDA-MB-231/ATCC, Breast", "value": 3.23, "unit": "µM"},
      {"measurement": "CC50", "setting": "MDA-MB-231; read-out: 50% lethal concentration (LC50), MDA-MB-231/ATCC, Breast", "value": 6.23, "unit": "µM"},
      {"measurement": "Total growth inhibition (TGI)", "setting": "HOP-62; HOP-62, Non-Small Cell Lung", "value": 4.94, "unit": "µM"},
      {"measurement": "GI50", "setting": "HOP-62; HOP-62, Non-Small-Cell Lung", "value": 2.08, "unit": "µM"},
      {"measurement": "CC50", "setting": "HOP-62; read-out: 50% lethal concentration (LC50), HOP-62, Non-Small Cell Lung", "value": "> 100", "unit": "µM"},
      {"measurement": "Total growth inhibition (TGI)", "setting": "EKVX; Non-Small Cell Lung", "value": 5.16, "unit": "µM"},
      {"measurement": "GI50", "setting": "EKVX; Non-Small-Cell Lung", "value": 2.1, "unit": "µM"},
      {"measurement": "CC50", "setting": "EKVX; [3]", "value": "> 100", "unit": "µM"},
      {"measurement": "Total growth inhibition (TGI)", "setting": "A549/ATCC; Non-Small Cell Lung", "value": 19.9, "unit": "µM"},
      {"measurement": "GI50", "setting": "A549/ATCC; Non-Small-Cell Lung", "value": 3.07, "unit": "µM"},
      {"measurement": "CC50", "setting": "A549/ATCC; [3]", "value": "> 100", "unit": "µM"},
      {"measurement": "GI50", "setting": "U251", "value": 1.69, "unit": "µM"},
      {"measurement": "Total growth inhibition (TGI)", "setting": "U251", "value": 3.13, "unit": "µM"},
      {"measurement": "GI50", "setting": "A498", "value": 4.33, "unit": "µM"},
      {"measurement": "Total growth inhibition (TGI)", "setting": "A498", "value": 8.1, "unit": "µM"},
      {"measurement": "CC50", "setting": "A498; [2]", "value": 44, "unit": "µM"},
      {"measurement": "GI50", "setting": "KM12", "value": 1.83, "unit": "µM"},
      {"measurement": "Total growth inhibition (TGI)", "setting": "KM12", "value": 3.58, "unit": "µM"},
      {"measurement": "GI50", "setting": "OVCAR-8", "value": 1.76, "unit": "µM"},
      {"measurement": "Total growth inhibition (TGI)", "setting": "OVCAR-8", "value": 4.22, "unit": "µM"},
      {"measurement": "CC50", "setting": "OVCAR-8; [2]", "value": "> 100", "unit": "µM"},
      {"measurement": "Total growth inhibition (TGI)", "setting": "NCI-H226; NCI-H226, Non-Small Cell Lung", "value": 3.43, "unit": "µM"},
      {"measurement": "GI50", "setting": "NCI-H226; NCI-H226, Non-Small-Cell Lung", "value": 1.75, "unit": "µM"},
      {"measurement": "CC50", "setting": "NCI-H226; read-out: 50% lethal concentration (LC50), NCI-H226, Non-Small Cell Lung", "value": 6.71, "unit": "µM"},
      {"measurement": "GI50", "setting": "SK-MEL-28", "value": 1.73, "unit": "µM"},
      {"measurement": "Total growth inhibition (TGI)", "setting": "SK-MEL-28", "value": 3.28, "unit": "µM"},
      {"measurement": "CC50", "setting": "SK-MEL-28; [2]", "value": 6.2, "unit": "µM"},
      {"measurement": "GI50", "setting": "CAKI-1", "value": 1.42, "unit": "µM"},
      {"measurement": "Total growth inhibition (TGI)", "setting": "CAKI-1", "value": 2.98, "unit": "µM"},
      {"measurement": "CC50", "setting": "CAKI-1; [2]", "value": 6.04, "unit": "µM"},
      {"measurement": "GI50", "setting": "SK-MEL-2", "value": 1.78, "unit": "µM"},
      {"measurement": "Total growth inhibition (TGI)", "setting": "SK-MEL-2", "value": 3.38, "unit": "µM"},
      {"measurement": "GI50", "setting": "HT29", "value": 1.66, "unit": "µM"},
      {"measurement": "Total growth inhibition (TGI)", "setting": "HT29", "value": 3.46, "unit": "µM"},
      {"measurement": "CC50", "setting": "HT29; [2]", "value": 7.23, "unit": "µM"},
      {"measurement": "GI50", "setting": "SR; Leukemia", "value": 1.77, "unit": "µM"},
      {"measurement": "CC50", "setting": "SR; read-out: 50% lethal concentration (LC50), Leukemia", "value": "> 100", "unit": "µM"},
      {"measurement": "GI50", "setting": "RXF 393", "value": 1.18, "unit": "µM"},
      {"measurement": "Total growth inhibition (TGI)", "setting": "RXF 393", "value": 2.93, "unit": "µM"},
      {"measurement": "CC50", "setting": "RXF 393; [2]", "value": 5.51, "unit": "µM"},
      {"measurement": "GI50", "setting": "MALME-3M", "value": 1.87, "unit": "µM"},
      {"measurement": "Total growth inhibition (TGI)", "setting": "MALME-3M", "value": 3.45, "unit": "µM"},
      {"measurement": "GI50", "setting": "SF-539", "value": 1.78, "unit": "µM"},
      {"measurement": "Total growth inhibition (TGI)", "setting": "SF-539", "value": 3.2, "unit": "µM"},
      {"measurement": "CC50", "setting": "SF-539; [2]", "value": 5.74, "unit": "µM"},
      {"measurement": "GI50", "setting": "SW-620", "value": 1.72, "unit": "µM"},
      {"measurement": "Total growth inhibition (TGI)", "setting": "SW-620", "value": 3.64, "unit": "µM"},
      {"measurement": "GI50", "setting": "OVCAR-3", "value": 1.69, "unit": "µM"},
      {"measurement": "Total growth inhibition (TGI)", "setting": "OVCAR-3", "value": 3.21, "unit": "µM"},
      {"measurement": "CC50", "setting": "OVCAR-3; [2]", "value": 6.08, "unit": "µM"},
      {"measurement": "Total growth inhibition (TGI)", "setting": "NCI-H460; NCI-H460, Non-Small Cell Lung", "value": 3.49, "unit": "µM"},
      {"measurement": "GI50", "setting": "NCI-H460; NCI-H460, Non-Small-Cell Lung", "value": 1.78, "unit": "µM"},
      {"measurement": "CC50", "setting": "NCI-H460; read-out: 50% lethal concentration (LC50), NCI-H460, Non-Small Cell Lung", "value": 6.83, "unit": "µM"},
      {"measurement": "GI50", "setting": "HS 578T; Breast", "value": 1.94, "unit": "µM"},
      {"measurement": "Total growth inhibition (TGI)", "setting": "HS 578T; Breast", "value": 5.19, "unit": "µM"},
      {"measurement": "CC50", "setting": "HS 578T; read-out: 50% lethal concentration (LC50), Breast", "value": "> 100", "unit": "µM"},
      {"measurement": "GI50", "setting": "NCI/ADR-RES; Ovarian", "value": 2.15, "unit": "µM"},
      {"measurement": "Total growth inhibition (TGI)", "setting": "NCI/ADR-RES; Ovarian", "value": 5.37, "unit": "µM"},
      {"measurement": "CC50", "setting": "NCI/ADR-RES; read-out: 50% lethal concentration (LC50), Ovarian", "value": "> 100", "unit": "µM"},
      {"measurement": "% DPPH radical scavenging activity", "setting": "[1]", "value": 58.75, "unit": "%"},
      {"measurement": "GI50", "setting": "SN12C; Renal", "value": 1.57, "unit": "µM"},
      {"measurement": "Total growth inhibition (TGI)", "setting": "SN12C; Renal", "value": 2.55, "unit": "µM"},
      {"measurement": "CC50", "setting": "SN12C; read-out: 50% lethal concentration (LC50), Renal", "value": 8.12, "unit": "µM"},
      {"measurement": "GI50", "setting": "MCF7", "value": 1.77, "unit": "µM"},
      {"measurement": "Total growth inhibition (TGI)", "setting": "MCF7", "value": "> 100", "unit": "µM"},
      {"measurement": "CC50", "setting": "MCF7; [2]", "value": "> 100", "unit": "µM"},
      {"measurement": "GI50", "setting": "LOX IMVI; Melanoma", "value": 1.64, "unit": "µM"},
      {"measurement": "Total growth inhibition (TGI)", "setting": "LOX IMVI; Melanoma", "value": 3.03, "unit": "µM"},
      {"measurement": "CC50", "setting": "LOX IMVI; read-out: 50% lethal concentration (LC50), Melanoma", "value": 5.59, "unit": "µM"}
    ]}
  ]
}
